In the supplement of paper PMC10307832:

Assays:
Experiment in all cases: relative viability (nuclei count vs DMSO), 5 days (fraction); higher = more cells survive
[1] = compound: CCN(CC)CCNC(=O)c1c(C)[nH]c(/C=C2\C(=O)Nc3ccc(F)cc32)c1C [Sunitinib] + CC(=O)Nc1cccc(-n2c(=O)n(C3CC3)c(=O)c3c(Nc4ccc(I)cc4F)n(C)c(=O)c(C)c32)c1 [Trametinib] (partner 0.02 µM)
How it was run: (§1)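 One day after seeding in 1536-well plates, lung cancer cell lines were dosed by pin tool. Dosing was either single-drug or a fixed anchor-drug dose plus five library-drug doses (not always all listed) in √10 steps. After 5 days, nuclei were stained in one fix-and-stain step and counted on 4× images, and relative viability is the nuclei count of treated wells over that of vehicle wells, given as the median of duplicate plates.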

[2] = compound: CCN(CC)CCNC(=O)c1c(C)[nH]c(/C=C2\C(=O)Nc3ccc(F)cc32)c1C [Sunitinib] + COc1cccc2cc(-c3nc([C@H]4CC[C@H](C(=O)O)CC4)n4ncnc(N)c34)[nH]c12 [OSI-027] (partner 0.5 µM)
How it was run: as §1

[3] = compound: CCN(CC)CCNC(=O)c1c(C)[nH]c(/C=C2\C(=O)Nc3ccc(F)cc32)c1C [Sunitinib] + C[C@@H](Oc1cc(-c2cnn(C3CCNCC3)c2)cnc1N)c1c(Cl)ccc(F)c1Cl [Crizotinib] (partner 1 µM)
How it was run: as §1

[4] = compound: CCN(CC)CCNC(=O)c1c(C)[nH]c(/C=C2\C(=O)Nc3ccc(F)cc32)c1C [Sunitinib] + N=C(N)NC(=N)NCCc1ccccc1 [Phenformin] (partner 250 µM)
How it was run: as §1

Row | Cell Line | relative viability ([1]; first compound 0.02 µM) | relative viability ([1]; first compound 0.06325 µM) | relative viability ([1]; first compound 0.2 µM) | relative viability ([1]; first compound 0.6325 µM) | relative viability ([1]; first compound 2 µM) | relative viability ([2]; first compound 0.02 µM) | relative viability ([2]; first compound 0.06325 µM) | relative viability ([2]; first compound 0.2 µM) | relative viability ([2]; first compound 0.6325 µM) | relative viability ([2]; first compound 2 µM) | relative viability ([3]; first compound 0.02 µM) | relative viability ([3]; first compound 0.06325 µM) | relative viability ([3]; first compound 0.2 µM) | relative viability ([3]; first compound 0.6325 µM) | relative viability ([3]; first compound 2 µM) | relative viability ([4]; first compound 0.02 µM) | relative viability ([4]; first compound 0.06325 µM) | relative viability ([4]; first compound 0.2 µM) | relative viability ([4]; first compound 0.6325 µM) | relative viability ([4]; first compound 2 µM)
1 | 201T | 0.704 | 0.75 | 0.739 | 0.717 | 0.697 | 0.663 | 0.778 | 0.904 | 0.733 | 0.654 | 0.981 | 0.978 | 1.03 | 1.02 | 1.06 | 0.444 | 0.468 | 0.496 | 0.468 | 0.434
2 | A-427 | 0.759 | 0.758 | 0.893 | 0.821 | 0.728 | 0.445 | 0.49 | 0.448 | 0.537 | 0.392 | 0.865 | 0.885 | 1.09 | 0.847 | 0.787 | 0.263 | 0.383 | 0.315 | 0.301 | 0.279
3 | ABC-1 | – | – | – | – | – | 0.43 | 0.604 | 0.494 | 0.685 | 0.504 | 1.08 | 1.12 | 1.03 | 1.03 | 0.739 | 0.218 | 0.254 | 0.218 | 0.242 | 0.225
4 | BEN | 0.9 | – | 1.06 | 1.08 | 1.05 | 0.306 | 0.32 | 0.281 | 0.3 | 0.273 | 0.835 | 0.956 | 1.18 | 0.93 | 0.955 | 0.277 | 0.266 | 0.267 | 0.275 | 0.265
5 | CAL-12T | 0.322 | 0.356 | 0.4 | 0.407 | 0.268 | 0.665 | 0.695 | 0.748 | – | 0.397 | 0.564 | 0.735 | 0.623 | 0.791 | 0.582 | 0.515 | 0.648 | 0.591 | 0.702 | 0.518
6 | COR-L23 | 0.466 | 0.57 | 0.548 | 0.656 | 0.547 | 0.73 | 0.829 | 0.889 | 0.878 | 0.779 | 0.663 | 0.748 | 0.799 | 0.761 | 0.727 | 0.421 | 0.482 | 0.469 | 0.443 | 0.461
7 | COR-L 105 | 0.45 | 0.465 | 0.452 | 0.469 | 0.44 | 0.626 | 0.734 | 0.779 | 0.987 | 0.767 | 0.513 | 0.811 | 0.995 | 0.894 | 0.695 | 0.415 | 0.544 | 0.496 | 0.49 | 0.471
8 | Calu-6 | – | – | – | – | – | – | – | – | – | – | 0.711 | 0.772 | 0.852 | 0.932 | 0.79 | – | – | – | – | –
9 | ChaGo-K-1 | 0.814 | 0.919 | 0.977 | 0.889 | 0.888 | 0.494 | 0.685 | 0.577 | 0.663 | 0.579 | 1.06 | 1.14 | 1.34 | 1.22 | 1.12 | 0.409 | 0.543 | 0.508 | 0.516 | 0.488
10 | EBC-1 | – | – | – | – | – | – | – | – | – | – | 0.171 | 0.178 | 0.216 | 0.183 | 0.19 | – | – | – | – | –
11 | EKVX | 0.314 | 0.357 | 0.412 | 0.345 | 0.298 | 0.671 | 0.728 | 0.771 | 0.741 | 0.666 | 0.966 | 1.14 | 1.22 | – | 0.958 | 0.242 | 0.234 | 0.236 | 0.256 | 0.248
12 | EMC-BAC-2 | 0.868 | 0.932 | 0.966 | 0.99 | 1.12 | 0.372 | 0.41 | 0.423 | 0.4 | 0.502 | 0.743 | 0.848 | 0.821 | 0.88 | 0.797 | 0.489 | 0.566 | 0.595 | 0.559 | 0.543
13 | EPLC-272H | 0.253 | 0.271 | 0.287 | 0.283 | 0.288 | 0.336 | 0.318 | 0.302 | 0.29 | 0.291 | 0.906 | 0.736 | 0.959 | – | 0.706 | 0.335 | 0.334 | 0.324 | 0.313 | 0.263
14 | H3255 | 0.611 | 0.658 | 0.652 | 0.614 | 0.597 | 0.66 | 0.583 | 0.645 | 0.621 | 0.666 | 0.836 | 0.831 | 0.876 | 1.05 | 0.917 | 0.4 | 0.383 | 0.344 | 0.411 | 0.365
15 | HARA | 0.599 | 0.976 | 0.841 | 0.943 | 0.707 | 0.447 | 0.566 | 0.655 | 0.489 | 0.399 | 1.02 | 1.11 | 1.41 | 1.19 | – | 0.478 | 0.495 | 0.484 | 0.399 | 0.43
16 | HCC-15 | 0.36 | 0.316 | 0.305 | 0.352 | 0.312 | 0.608 | – | 0.852 | 0.714 | 0.641 | 0.761 | 0.84 | 0.958 | 0.86 | 0.859 | 0.424 | 0.523 | 0.588 | 0.49 | 0.404
17 | HCC-44 | 1.06 | 1.14 | 1.1 | 1.08 | – | 0.558 | 0.459 | 0.676 | 0.64 | 0.665 | 0.874 | 0.784 | 0.937 | 0.859 | 0.774 | 0.29 | 0.238 | 0.274 | 0.145 | 0.142
18 | HCC-78 | 0.76 | 0.812 | 0.985 | 0.737 | 0.701 | 0.352 | 0.397 | 0.377 | 0.379 | 0.411 | 0.299 | – | 0.348 | – | 0.365 | 0.639 | 0.726 | 0.71 | 0.677 | 0.806
